# From paper PMC12134470 (International Journal of Nanomedicine, 2025)
# Columns and labels:
# [1] = cited from earlier work
# MDA-MB-468 = experiment: Antiproliferative activity, SRB assay; format: cell-based, human; conditions: 72 hours of exposure; tested 5–625 μM
structure (smiles),measurement,setting,value
"CC(C)Cc1ccc([C@H](C)C(=O)O)cc1 [DXI, dexibuprofen]",Water solubility,[1],68.4 µg/mL
same,IC50 MDA-MB-468,MDA-MB-468,did not express any cytotoxic effect
